In patent publication US7754739B2, “Modulators of CFTR” (Vertex Pharmaceuticals Incorporated, priority 2007, dated 2010):

Biological target: T1, ΔF508-CFTR (Homo sapiens, UniProt P13569, DEL508-508)
T1 construct: expressed in transfected cells; host or cells: NIH3T3 mouse fibroblasts, stably expressing
Test: Membrane potential optical methods for assaying ΔF508-CFTR modulation properties of compounds
Assay type: cell-based
Conditions: NIH3T3 cells expressing ΔF508-CFTR
Text: Assays for Detecting and Measuring ΔF508-CFTR Correction Properties of Compounds
Membrane potential optical methods for assaying ΔF508-CFTR modulation properties of compounds
The optical membrane potential assay utilized voltage-sensitive FRET sensors described by Gonzalez and Tsien (See, Gonzalez, J. E. and R. Y. Tsien (1995) “Voltage sensing by fluorescence resonance energy transfer in single cells” Biophys J 69(4): 1272-80, and Gonzalez, J. E. and R. Y. Tsien (1997) “Improved indicators of cell membrane potential that use fluorescence resonance energy transfer” Chem Biol 4(4): 269-77) in combination with instrumentation for measuring fluorescence changes such as the Voltage/Ion Probe Reader (VIPR) (See, Gonzalez, J. E., K. Oades, et al. (1999) “Cell-based assays and instrumentation for screening ion-channel targets” Drug Discov Today 4(9): 431-439).
These voltage sensitive assays are based on the change in fluorescence resonant energy transfer (FRET) between the membrane-soluble, voltage-sensitive dye, DiSBAC2(3), and a fluorescent phospholipid, CC2-DMPE, which is attached to the outer leaflet of the plasma membrane and acts as a FRET donor. Changes in membrane potential (Vm) cause the negatively charged DiSBAC2(3) to redistribute across the plasma membrane and the amount of energy transfer from CC2-DMPE changes accordingly. The changes in fluorescence emission were monitored using VIPR™ II, which is an integrated liquid handler and fluorescent detector designed to conduct cell-based screens in 96- or 384-well microtiter plates.
1. Identification of Correction Compounds
To identify small molecules that correct the trafficking defect associated with EF508-CFTR; a single-addition HTS assay format was developed. The cells were incubated in serum-free medium for 16 hrs at 37° C. in the presence or absence (negative control) of test compound. As a positive control, cells plated in 384-well plates were incubated for 16 hrs at 27° C. to “temperature-correct” ΔF508-CFTR. The cells were subsequently rinsed 3× with Krebs Ringers solution and loaded with the voltage-sensitive dyes. To activate ΔF508-CFTR, 10 μM forskolin and the CFTR potentiator, genistein (20 μM), were added along with Cl^−-free medium to each well. The addition of Cl^−-free medium promoted Cl^−-efflux in response to ΔF508-CFTR activation and the resulting membrane depolarization was optically monitored using the FRET-based voltage-sensor dyes.
2. […]
To identify potentiators of ΔF508-CFTR, a double-addition HTS assay format was developed. […] The extracellular Cl^−-concentration following both additions was 28 mM, which promoted Cl^−-efflux in response to ΔF508-CFTR activation and the resulting membrane depolarization was optically monitored using the FRET-based voltage-sensor dyes. […]

T1 sequence (P13569 with tags, fused parts or gaps DEL508-508): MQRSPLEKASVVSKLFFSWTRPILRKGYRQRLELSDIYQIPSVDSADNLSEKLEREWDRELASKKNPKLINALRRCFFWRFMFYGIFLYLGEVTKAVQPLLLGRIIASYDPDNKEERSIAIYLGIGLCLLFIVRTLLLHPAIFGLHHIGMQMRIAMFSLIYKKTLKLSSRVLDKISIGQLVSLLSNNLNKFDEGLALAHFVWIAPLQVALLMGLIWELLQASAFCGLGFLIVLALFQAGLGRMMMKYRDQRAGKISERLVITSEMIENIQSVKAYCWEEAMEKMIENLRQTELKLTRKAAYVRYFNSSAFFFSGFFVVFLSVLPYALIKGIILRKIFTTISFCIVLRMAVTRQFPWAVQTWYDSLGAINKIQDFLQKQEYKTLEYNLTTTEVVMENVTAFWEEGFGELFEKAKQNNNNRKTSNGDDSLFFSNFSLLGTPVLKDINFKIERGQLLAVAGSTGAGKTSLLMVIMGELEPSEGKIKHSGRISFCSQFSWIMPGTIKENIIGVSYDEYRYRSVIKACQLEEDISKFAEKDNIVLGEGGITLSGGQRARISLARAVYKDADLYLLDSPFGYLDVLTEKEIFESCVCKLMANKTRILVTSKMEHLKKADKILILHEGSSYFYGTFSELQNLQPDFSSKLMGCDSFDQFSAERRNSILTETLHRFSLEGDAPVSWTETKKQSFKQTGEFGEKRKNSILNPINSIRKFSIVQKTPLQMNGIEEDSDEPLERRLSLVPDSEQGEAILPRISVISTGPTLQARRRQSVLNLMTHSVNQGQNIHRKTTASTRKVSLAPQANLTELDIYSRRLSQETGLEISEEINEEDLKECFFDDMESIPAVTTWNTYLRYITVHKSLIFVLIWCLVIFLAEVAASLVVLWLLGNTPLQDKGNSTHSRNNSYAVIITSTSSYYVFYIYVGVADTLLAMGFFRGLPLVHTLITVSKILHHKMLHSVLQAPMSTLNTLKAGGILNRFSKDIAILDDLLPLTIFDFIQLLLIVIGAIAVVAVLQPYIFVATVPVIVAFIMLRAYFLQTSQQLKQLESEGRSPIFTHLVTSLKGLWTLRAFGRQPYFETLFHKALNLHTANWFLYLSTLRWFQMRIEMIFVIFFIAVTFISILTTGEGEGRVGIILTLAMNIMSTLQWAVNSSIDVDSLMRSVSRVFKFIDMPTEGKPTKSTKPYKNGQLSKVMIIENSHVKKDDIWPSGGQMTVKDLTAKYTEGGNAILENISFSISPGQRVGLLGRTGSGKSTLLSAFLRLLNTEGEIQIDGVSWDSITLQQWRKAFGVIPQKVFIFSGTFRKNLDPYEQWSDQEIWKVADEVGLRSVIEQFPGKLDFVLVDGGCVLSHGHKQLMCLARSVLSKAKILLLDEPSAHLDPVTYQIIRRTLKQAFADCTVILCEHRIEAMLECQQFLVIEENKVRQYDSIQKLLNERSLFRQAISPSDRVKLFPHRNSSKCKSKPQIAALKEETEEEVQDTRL

| EC50 [µM] | Percent Efficacy | SMILES |
| --- | --- | --- |
| ≤ 2 | +++ (100.0% < +++) | COc1ccc(C2(C(=O)Nc3ccc(C)c(-c4cccc(C(=O)O)c4)n3)CC2)cc1 [compound 1] |
| ≤ 2 | +++ (100.0% < +++) | Cc1ccc(NC(=O)C2(c3ccc4c(c3)CCO4)CC2)nc1-c1cccc(C(=O)O)c1 [compound 2] |
